Experimental data: patent publication US11292801B2, “Calpain modulators and therapeutic uses thereof” (Blade Therapeutics, Inc., priority 2016, dated 2022)

Assays:
Human Calpain 1/NS1 = molecular target: T1, Human Calpain 1/NS1 (Homo sapiens, UniProt P07384); assay: Biochemical inhibition of calpain 1, continuous fluorescence (FRET substrate) assay; conditions: mean, read-out: Human Calpain 1/NS1 IC50 (nM)_MEAN
T1 sequence (P07384 1-714): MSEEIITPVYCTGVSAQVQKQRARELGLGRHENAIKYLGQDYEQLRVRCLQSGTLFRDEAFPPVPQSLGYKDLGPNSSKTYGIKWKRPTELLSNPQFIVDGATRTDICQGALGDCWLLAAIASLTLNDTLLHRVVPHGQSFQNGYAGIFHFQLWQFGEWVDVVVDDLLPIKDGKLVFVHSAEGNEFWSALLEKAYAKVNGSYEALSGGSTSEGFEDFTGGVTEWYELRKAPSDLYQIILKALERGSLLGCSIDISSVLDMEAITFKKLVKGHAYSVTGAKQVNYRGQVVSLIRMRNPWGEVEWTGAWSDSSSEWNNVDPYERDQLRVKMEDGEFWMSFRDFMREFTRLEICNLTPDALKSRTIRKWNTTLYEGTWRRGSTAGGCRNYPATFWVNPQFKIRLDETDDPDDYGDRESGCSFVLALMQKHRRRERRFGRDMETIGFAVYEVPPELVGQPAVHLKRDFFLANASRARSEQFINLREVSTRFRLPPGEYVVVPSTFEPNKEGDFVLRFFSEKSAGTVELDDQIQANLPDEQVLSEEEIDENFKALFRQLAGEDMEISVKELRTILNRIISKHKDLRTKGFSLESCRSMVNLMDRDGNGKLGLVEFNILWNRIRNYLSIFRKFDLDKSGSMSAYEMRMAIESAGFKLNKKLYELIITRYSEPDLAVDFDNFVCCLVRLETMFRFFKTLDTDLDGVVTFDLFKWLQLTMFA
T1 sequence (P04632 1-268 partner): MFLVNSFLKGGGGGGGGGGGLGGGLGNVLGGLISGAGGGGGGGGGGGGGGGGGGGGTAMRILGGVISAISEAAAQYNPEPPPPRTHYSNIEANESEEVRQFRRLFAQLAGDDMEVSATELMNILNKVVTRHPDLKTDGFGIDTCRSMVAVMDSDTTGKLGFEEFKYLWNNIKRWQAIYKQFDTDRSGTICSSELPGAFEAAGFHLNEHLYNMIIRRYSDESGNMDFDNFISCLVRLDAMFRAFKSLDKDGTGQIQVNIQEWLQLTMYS
Procedure, shortened: (§1)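 IC50 values come from 4-parameter fits of progress-curve rates (1-5 min slopes) against log inhibitor concentration. Calpain and inhibitor premixed at ambient 25C in Tris pH ~7.5/NaCl/DTT buffer, then CaCl2 and FRET substrate added to activate; 5-FAM fluorescence (ex 490/em 520) followed 10 min.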

Human Calpain 2/NS1 = molecular target: T2, Human Calpain 2/NS1 (Homo sapiens, UniProt P17655); assay: Biochemical inhibition of calpain 2, continuous fluorescence (FRET substrate) assay; conditions: mean, read-out: Human Calpain 2/NS1 IC50 (nM)_MEAN
T2 sequence (P17655 1-700): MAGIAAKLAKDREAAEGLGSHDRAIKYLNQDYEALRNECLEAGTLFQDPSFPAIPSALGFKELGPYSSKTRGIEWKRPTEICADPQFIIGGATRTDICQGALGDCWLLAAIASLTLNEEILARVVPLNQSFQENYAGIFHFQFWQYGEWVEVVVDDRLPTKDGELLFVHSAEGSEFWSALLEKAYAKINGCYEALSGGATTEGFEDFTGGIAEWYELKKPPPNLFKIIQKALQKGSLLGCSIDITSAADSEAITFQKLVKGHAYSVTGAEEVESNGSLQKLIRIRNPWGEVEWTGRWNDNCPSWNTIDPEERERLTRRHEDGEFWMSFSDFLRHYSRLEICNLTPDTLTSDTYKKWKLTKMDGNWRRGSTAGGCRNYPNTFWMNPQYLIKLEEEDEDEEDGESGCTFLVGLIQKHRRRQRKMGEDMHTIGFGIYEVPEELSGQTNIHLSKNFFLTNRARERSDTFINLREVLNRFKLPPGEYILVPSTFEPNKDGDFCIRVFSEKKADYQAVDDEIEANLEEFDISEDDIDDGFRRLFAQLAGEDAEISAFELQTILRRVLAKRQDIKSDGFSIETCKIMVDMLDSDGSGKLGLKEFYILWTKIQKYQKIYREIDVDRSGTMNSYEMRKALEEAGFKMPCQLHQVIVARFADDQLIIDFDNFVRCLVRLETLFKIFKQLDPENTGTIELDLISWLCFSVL
T2 sequence (P04632 1-268 partner): T1 sequence (P04632 1-268 partner)
Procedure, shortened: as §1

Human Calpain 9/NS1 = molecular target: T3, Human Calpain 9/NS1 (Homo sapiens, UniProt O14815); assay: Biochemical inhibition of calpain 9, continuous fluorescence (FRET substrate) assay; conditions: mean, read-out: Human Calpain 9/NS1 IC50 (nM)_MEAN
T3 sequence (O14815 1-690): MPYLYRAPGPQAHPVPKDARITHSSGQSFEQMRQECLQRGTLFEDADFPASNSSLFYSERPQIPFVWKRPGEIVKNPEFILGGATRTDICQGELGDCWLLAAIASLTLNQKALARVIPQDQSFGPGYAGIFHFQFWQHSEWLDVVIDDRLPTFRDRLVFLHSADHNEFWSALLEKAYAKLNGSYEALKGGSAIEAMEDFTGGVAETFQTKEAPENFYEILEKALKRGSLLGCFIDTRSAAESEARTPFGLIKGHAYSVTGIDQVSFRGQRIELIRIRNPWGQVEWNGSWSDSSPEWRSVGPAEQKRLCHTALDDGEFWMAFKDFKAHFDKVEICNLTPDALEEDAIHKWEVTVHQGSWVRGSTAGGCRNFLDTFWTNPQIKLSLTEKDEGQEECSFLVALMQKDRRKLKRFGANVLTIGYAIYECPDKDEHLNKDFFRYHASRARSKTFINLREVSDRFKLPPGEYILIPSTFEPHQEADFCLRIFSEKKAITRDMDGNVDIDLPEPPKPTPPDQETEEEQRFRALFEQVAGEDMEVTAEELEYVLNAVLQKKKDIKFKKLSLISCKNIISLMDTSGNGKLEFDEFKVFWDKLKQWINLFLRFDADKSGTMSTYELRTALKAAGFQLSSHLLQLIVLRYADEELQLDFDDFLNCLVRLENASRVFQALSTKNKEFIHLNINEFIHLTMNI
T3 sequence (P04632 1-268 partner): T1 sequence (P04632 1-268 partner)
Procedure, shortened: as §1

Row | Compound | IC50 (Human Calpain 1/NS1) | IC50 (Human Calpain 2/NS1) | IC50 (Human Calpain 9/NS1)
1 | CS(=O)(=O)c1ccc(CNC(=O)C(=O)C2CCCCOCCOCc3ccccc3C(=O)N2)cc1 (stereo not drawn) [Compound 121, N-(4-(methylsulfonyl)benzyl)-2-oxo-2-(12-oxo-1,3,4,6,7,8,9,10,11,12-decahydrobenzo[f][1,4]dioxa[9]azacyclotetradecin-10-yl)acetamide] | > 10000 nM | 3000 to 10000 nM | < 3000 nM
2 | CCCCNC(=O)C(=O)[C@@H]1C/C=C\COCCOCc2ccccc2C(=O)N1 [Compound 59, (S,Z)—N-butyl-2-oxo-2-(12-oxo-1,3,4,6,9,10,11,12-octahydrobenzo[f][1,4]dioxa[9]azacyclotetradecin-10-yl)acetamide] | > 10000 nM | > 10000 nM | < 3000 nM
3 | O=C[C@@H]1CCCCCOc2cccc(c2)-c2ncccc2C(=O)N1 [Compound 38, (S)-11-Oxo-3-oxa-10-aza-1(2,3)-pyridina-2(1,3)-benzenacycloundecaphane-9-carbaldehyde] | < 3000 nM | < 3000 nM | < 3000 nM
4 | O=C(NCc1ccc(OC(F)(F)F)cc1)C(=O)C1CCCCOCCOCc2ccccc2C(=O)N1 (stereo not drawn) [Compound 87, 2-Oxo-2-(12-oxo-1,3,4,6,7,8,9,10,11,12-decahydrobenzo[f][1,4]dioxa[9]aza-cyclotetradecin-10-yl)-N-(4-(trifluoromethoxy)benzyl)acetamide] | > 10000 nM | > 10000 nM | < 3000 nM
5 | O=C[C@@H]1CCCCCCOc2ccnc(n2)-c2ccccc2C(=O)N1 [Compound 133, (S)-3-oxo-12-oxa-4-aza-1(2,4)-pyrimidina-2(1,2)-benzenacyclododecaphane-5-carbaldehyde] | < 3000 nM | < 3000 nM | < 3000 nM
6 | CCOC(=O)CCNC(=O)C(=O)[C@@H]1C/C=C/COCCOCc2ccccc2C(=O)N1 [Compound 63, Ethyl (S,E)-3-(2-oxo-2-(12-oxo-1,3,4,6,9,10,11,12-octahydrobenzo[f][1,4]dioxa[9]azacyclotetradecin-10-yl)acetamido)propanoate] | > 10000 nM | > 10000 nM | > 10000 nM
7 | O=C(NCc1ccncc1)C(=O)C1CCCCOCCOCc2ccccc2C(=O)N1 (stereo not drawn) [Compound 117, 2-Oxo-2-(12-oxo-1,3,4,6,7,8,9,10,11,12-decahydrobenzo[f][1,4]dioxa[9]aza-cyclotetradecin-10-yl)-N-(pyridin-4-ylmethyl)acetamide] | > 10000 nM | 3000 to 10000 nM | < 3000 nM
8 | O=C[C@@H]1Cc2cccc(c2)C=CCCOc2cccc(c2)-c2ncccc2C(=O)N1 [Compound 36, (S)-3-Oxo-12-oxa-4-aza-2(2,3)-pyridina-1,7(1,3)-dibenzenacyclododecaphan-8-ene-5-carbaldehyde] | < 3000 nM | < 3000 nM | < 3000 nM
9 | O=C[C@@H]1Cc2ccc(cc2)OC/C=C/COc2ccc3c(cnn3-c3ncccc3C(=O)N1)c2 [Compound 66, (5S,E)-3-oxo-1^1H-8,13-dioxa-4-aza-1(1,5)-indazola-2(2,3)-pyridina-7(1,4)-benzenacyclotridecaphan-10-ene-5-carbaldehyde] | < 3000 nM | < 3000 nM | < 3000 nM
10 | O=C[C@@H]1CC=CCCOc2nccc(n2)-c2ccccc2C(=O)N1 [Compound 40, (S)-11-Oxo-3-oxa-10-aza-1(2,3)-pyridina-2(1,3)-benzena-cycloundecaphane-9-carbaldehyde] | 3000 to 10000 nM | < 3000 nM | < 3000 nM
11 | O=C[C@@H]1CCCCCCOc2ccnc(c2)-c2ccccc2C(=O)N1 [Compound 131, (S)-3-oxo-12-oxa-4-aza-1(2,4)-pyridina-2(1,2)-benzenacyclododecaphane-5-carbaldehyde] | < 3000 nM | < 3000 nM | < 3000 nM
12 | O=C[C@@H]1C/C=C/CCCCCCc2ccccc2C(=O)N1 [Compound 10, (S,E)-1-Oxo-1,2,3,4,7,8,9,10,11,12-decahydrobenzo[c][1]aza-cyclotetradecine-3-carbaldehyde] | 3000 to 10000 nM | < 3000 nM | < 3000 nM
13 | O=C(NCCc1cccc(Cl)c1)C(=O)C1CCCCOCCOCc2ccccc2C(=O)N1 (stereo not drawn) [Compound 89, N-(3-chlorophenethyl)-2-oxo-2-(12-oxo-1,3,4,6,7,8,9,10,11,12-decahydrobenzo[f][1,4]dioxa[9]azacyclotetradecin-10-yl)acetamide] | > 10000 nM | > 10000 nM | < 3000 nM
14 | COc1ccc(CNC(=O)C(=O)C2CCCCOCCOCc3ccccc3C(=O)N2)cc1 (stereo not drawn) [Compound 100, N-(4-methoxybenzyl)-2-oxo-2-(12-oxo-1,3,4,6,7,8,9,10,11,12-decahydrobenzo[f][1,4]dioxa[9]azacyclotetradecin-10-yl)acetamide] | > 10000 nM | 3000 to 10000 nM | < 3000 nM
15 | O=C[C@@H]1CCCCCCOc2ccccc2C(=O)N1 [Compound 24, (S)-10-Oxo-3,4,5,6,7,8,9,10-octahydro-2h-benzo[b][1]oxa[5]aza-cyclododecine-8-carbaldehyde] | > 10000 nM | < 3000 nM | < 3000 nM
16 | O=C(NC1CC1)C(=O)[C@@H]1Cc2ccc(cc2)OC/C=C/COc2ccc3c(cnn3-c3ncccc3C(=O)N1)c2 [Compound 69, N-cyclopropyl-2-oxo-2-((5S,E)-3-oxo-1^1H-8,13-dioxa-4-aza-1(1,5)-indazola-2(2,3)-pyridina-7(1,4)-benzenacyclotridecaphan-10-en-5-yl)acetamide] | 3000 to 10000 nM | < 3000 nM | < 3000 nM
17 | O=C(NCc1ccccc1Cl)C(=O)C1CCCCOCCOCc2ccccc2C(=O)N1 (stereo not drawn) [Compound 95, N-(2-chlorobenzyl)-2-oxo-2-(12-oxo-1,3,4,6,7,8,9,10,11,12-decahydrobenzo[f][1,4]dioxa[9]azacyclotetradecin-10-yl)acetamide] | > 10000 nM | > 10000 nM | < 3000 nM
18 | O=C[C@@H]1C/C=C\COCCOCc2ccccc2C(=O)N1 [Compound 1, (S,Z)-12-Oxo-1,3,4,6,9,10,11,12-octahydrobenzo[f][1,4]dioxa[9]azacyclo-tetradecine-10-carbaldehyde] | > 10000 nM | < 3000 nM | < 3000 nM
